Laboratory results from the METLIN SMRT retention time set (Domingo-Almenara et al. 2019).

Assay: gradient 5% acetonitrile 3 min, to 50% in 2 min, to 85% in 15 min, held 3 min, 100 µL/min
Details: column: Zorbax Extend-C18 2.1 x 50 mm; eluents: water / acetonitrile, 0.1% formic acid
Method in brief: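 Retention time was recorded from adduct peaks, which were picked computationally and each inspected manually. Pure standards ran in mixtures of ~100 molecules on HPLC coupled to a quadrupole time-of-flight mass spectrometer, in positive and negative ionization mode, through a Zorbax Extend-C18 column (2.1 × 50 mm, 1.8 μm) at 100 μL/min. Eluents were water and acetonitrile, each with 0.1% formic acid.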

SMILES	RP-LC retention time
COCC(C)(O)CNC(=O)c1cn(C)nc1OC (stereo not given)	561 s
CCCn1c(=O)sc2cc(S(=O)(=O)N3CCN(C(=O)c4ccnn4C)CC3)ccc21	792 s
COC(=O)C1=C(C)NC(C)=C(C(=O)OCCSc2ccccc2)C1C (stereo not given)	1080 s
Cc1ccc(C2=NC3(CCN(C(=O)c4ccco4)CC3)ON2)cc1	747 s
CCOCCCNC(=O)C1CCN(C2=NS(=O)(=O)C(c3ccc(CC)cc3)=C2C)CC1	810 s
Cc1sc2cc(C(=O)NC(C)(C)C)[nH]c2c1CN1CCCCC1	681 s
O=C(CC1COc2ccccc2NC1=O)Nc1ccc2c(c1)OCCO2 (stereo not given)	688 s
O=C1CN(Cc2ccc(OC(F)(F)F)cc2)C2(CCCC2)CN1	682 s
Cc1cccc(NC(=O)c2cn3c(n2)CCCC3)c1C	603 s
Cn1nnnc1SCC(=O)NCCn1nc(-c2ccco2)ccc1=O	592 s
COCCNC(=O)NC1CCN(c2nc3cccnc3n(Cc3ccc(C)cc3)c2=O)CC1	882 s
Cc1cc(C)c(C)c(S(=O)(=O)NCC2(c3cccs3)CCOCC2)c1C	1050 s
CC(C)C(=O)N1CCc2cc(-c3ccc(C(=O)NCCN4CCN(C)CC4)cc3)ccc21	608 s
COCCCNC(=O)Cn1nc(C)c2nn(-c3ccc(F)cc3)c(-n3cccc3)c2c1=O	795 s
COCCn1c(C)c(C)c(S(=O)(=O)c2ccc(F)cc2)c1NC(=O)C1CCCO1 (stereo not given)	839 s
CCN1C(=O)c2cccnc2Sc2cc(NC(=O)C(C)(C)C)ccc21	795 s
CC(C)Cn1c(=O)c(C(=O)NCc2cccc(C(F)(F)F)c2)nc2cccnc21	1030 s
Cc1ccc(CCNC(=O)c2cc3n(n2)CC(C)(C(=O)NC2CCCCC2)N(C)C3=O)cc1 (stereo not given)	844 s
O=C(CN1CCN(C(=O)Nc2ccc(Cl)cc2)CC1=O)N1CCN(c2ccccn2)CC1	592 s
COc1ccc(NC(=O)N2CCC(n3cnc4cc(F)ccc4c3=O)CC2)c(OC)c1	732 s
CC1CC(C)CN(CCCNC(=O)c2ccc3c(c2)NC(=O)CS3)C1 (stereo not given)	605 s

SMILES	RP-LC retention time
Cc1cc(C(=O)N2C[C@@H](CO)[C@H](N(C)C)C2)ccc1Br	597 s
O=C1NC(C(=O)NCCCn2cccn2)Cn2cccc21 (stereo not given)	585 s
CCCNC(=O)CN1C(=O)C2CCCCN2c2ccc(S(=O)(=O)N3CCCC3)cc21 (stereo not given)	800 s
CCc1nc(-c2ccnc(N3CCCC3)c2)no1	616 s
Cc1ccc2c(c1)C(=O)NC1(CCN(C(=O)c3ccccc3)CC1)N2C	748 s
CCc1ccc(CNC(=O)C2CCCN(c3nnc(C)c4c(C)n(-c5ccccc5)nc34)C2)cc1 (stereo not given)	795 s
O=C(Cn1nc2c(N3CCSCC3)nccn2c1=O)NCCC1=CCCCC1	861 s
CCn1ccc2ccc(CCC(=O)N3CCN(c4ccccc4)CC3)cc21	1030 s
Cc1ccc2cc(CCC(=O)NCCCN3CCCCC3C)c(=O)[nH]c2c1 (stereo not given)	590 s
O=S(=O)(c1cc(-c2nnc(C3CC3)o2)co1)N1CCN(c2ccccn2)CC1	640 s
Cc1nc2cccnc2n1CCN1CCN(C(=O)Nc2cccc(Cl)c2)CC1	604 s
O=C(NCCCN1CCCC1)c1ccc2c(c1)NC(=O)C1CCCCN21 (stereo not given)	588 s
Cc1ccc(Sc2nccnc2N2CCCC(C(=O)NC(C)C)C2)cc1 (stereo not given)	996 s
Cc1cccc(N2C(=O)C(O)=C(C(=O)c3cccs3)C2c2ccc(Cl)cc2)n1 (stereo not given)	1040 s
COc1cccc(N2CCN(C(=O)c3cc(C4CC4)[nH]n3)CC2)c1	813 s
Cc1ccc(NC(=O)Cn2cccc2-c2nnc(C3CCC3)o2)c(C)c1	963 s
COC(=O)c1ccc(S(=O)(=O)NCc2nc(C)no2)cc1	659 s
Cc1nn(C)c2nc(OC(C)C(=O)NCCc3ccccc3)cc(C(F)(F)F)c12 (stereo not given)	972 s
CCOc1ccccc1NC(=O)Cn1c(N2CCOCC2)nc(COC)cc1=O	967 s
Cc1nc(-c2ccc(Cl)cc2)oc1COC(C)(C)C(=O)O	909 s
CC(C)(C)C1CCc2[nH]nc(C(=O)N3CCc4nn(CC#N)c(=O)n4CC3)c2C1 (stereo not given)	760 s

SMILES	RP-LC retention time
Cc1cc(C)c(NC(=O)Cn2nc3c(N(C)C4CCCCC4)nccn3c2=O)c(C)c1	797 s
O=C(NC1CCN(Cc2ccccc2)CC1)c1cn2cc(Cl)ccc2n1	610 s
CCCCC(=O)N1CCc2c(c(C(=O)NCc3ccc4c(c3)OCO4)nn2C)C1	767 s
CC(C)n1c(=O)sc2cc(S(=O)(=O)N3CCC(C(=O)N4CCc5ccccc54)CC3)ccc21	1020 s
COc1cc(NC(=O)N2CCc3cn(C)c4cccc(c34)C2)cc(OC)c1	713 s
CCCNC(=O)c1cc(-c2ccccc2)cn1C	910 s
COc1ccc(NC(=O)Cn2cnc(-c3nc(C)cs3)c2)cc1Cl	699 s
Cc1ccc2c(=O)c(C(=O)N3CCOCC3)cn(CC(=O)NC3CCCCC3)c2n1	653 s
O=C(NC1CCCCC1)N1CCc2nc(-c3ccc(Cl)cc3)ncc2C1	1050 s
CC(Oc1ccccc1)C(=O)N1CC(c2nc(-c3ccsc3)nn2C)C1 (stereo not given)	766 s
Cc1cccc(NC(=O)C2CCN(S(=O)(=O)c3ccc4c(c3)sc(=O)n4C(C)C)CC2)c1	1010 s
Cc1nc2cc3c(cc2n1CC(=O)NCCc1ccc(F)cc1)OCCO3	646 s
CCOc1cc(=O)n2c(c1C(=O)Nc1ccc(C(=O)OC)cc1)CCCC2	707 s
C=C1C(=O)OC2CC(C)C3(O)CCC(=O)C3(C)CC12 (stereo not given)	775 s
O=C(C(=O)N1CCN(C2CCCCC2)CC1)c1ccc[nH]1	588 s
O=C(N[C@H]1C[C@@H]2C[C@H]1CN2S(=O)(=O)c1ccc2c(c1)CCC2)c1cccs1	943 s
c1cc(N2CCCCC2)ncc1-c1noc(CN2CCC3(CC2)OCCO3)n1	637 s
Cc1cc2[nH]c(C(=O)Nc3ccc(F)c(C)c3)c(CN3CCOCC3)c2s1	720 s
Cc1noc(C)c1CN1CCC(NC(=O)c2ccc3c(c2)OCO3)CC1	590 s
COC[C@@H]1OCCN(S(=O)(=O)c2cn(C)cn2)[C@H]1c1ccccc1	686 s

Second part, the compound after the results:

RP-LC retention time	SMILES
1000 s	CCc1cc(=O)n(CC(=O)NCc2ccc3c(c2)OCO3)c(-c2ccccc2)n1
1310 s	CC(C)CC(=O)Nc1ccc(-c2nc(-c3ccc(Cl)cc3)no2)cc1
734 s	O=C(NCCOc1ccc(-c2cccs2)nn1)NCc1ccccc1
1140 s	O=S(=O)(Nc1ccc(F)cc1)c1ccccc1-c1nc(-c2ccccc2)no1
754 s	CCNC(=O)Nc1ccc2c(c1)CN(S(=O)(=O)Cc1ccccc1)CCO2
1390 s	CCc1nc(-c2cccc(-c3noc(COc4cccc(C)c4)n3)c2)cs1
805 s	O=c1c(=O)n(-c2ccccc2)ccn1Cc1nc(-c2cccc(F)c2)no1
624 s	O=C(c1ccc(S(=O)(=O)NCc2cccnc2)o1)N1CCN(c2ccccc2F)CC1
684 s	CCOC(=O)c1cnc2nc(C)ccc2c1Nc1ccccc1F
845 s	COc1ccc(OC)c(S(=O)(=O)NC(C)c2ccccc2)c1 (stereo not given)
959 s	O=C(Nc1ccc(N2CCN(c3ccccc3)C2=O)nc1)c1cccc(Cl)c1
830 s	Cc1cccc(NC(=O)NC2CCN(c3ccc(F)cc3)C2=O)c1 (stereo not given)
696 s	N#Cc1ccc(C(=O)N2CCCC2c2nc(-c3ccccc3)n[nH]2)cc1 (stereo not given)
856 s	CN(CCc1noc(COc2ccc(F)cc2)n1)C(=O)Nc1ccccc1
816 s	O=C(NCc1cccs1)C1CCCN(c2nc3ccsc3c(=O)n2-c2ccccc2)C1 (stereo not given)
776 s	Cc1nnc(-c2nnc(NCc3ccccc3)c3ccccc23)o1
925 s	O=C1C2N=NN(c3cccc(F)c3)C2C(=O)N1c1ccccc1 (stereo not given)
850 s	Cn1c(=O)c2cc(C(=O)Nc3ccc4c(c3)OCO4)cnc2n(-c2ccc(F)cc2)c1=O
728 s	CC(C)c1ccc(OCC(=O)Nc2nnc(C3CC(=O)N(c4ccccc4)C3)o2)cc1 (stereo not given)
1020 s	O=C(C1CCN(S(=O)(=O)c2cc(-c3noc(C4CC4)n3)cs2)CC1)N1CCc2ccccc2C1
1040 s	CCOc1cccc(-c2noc(Cn3c(=O)n(CCCOC)c(=O)c4ccccc43)n2)c1
630 s	COCCN(Cc1ccncc1)S(=O)(=O)c1ccc(-c2ccccc2)cc1
652 s	Cn1ncc2c(NCc3ccccc3)nc(NCc3ccccc3)nc21
917 s	CC(C)CCNC(=O)CSc1nc(N2CCc3ccccc3C2)nc2ccccc12
995 s	CCOC(=O)c1ccccc1NC(=O)N1CCN(c2ccc(=O)n(-c3ccccc3)n2)CC1
741 s	Cc1ccc(CNC(=O)c2cc3n(n2)CC(C)(C(=O)NCc2ccc(F)cc2)N(C)C3=O)cc1 (stereo not given)
1080 s	O=C(Nc1ccc2c(c1)CCCN2S(=O)(=O)c1ccccc1)c1c(F)cccc1Cl
897 s	O=C(c1cc(Cl)ccc1Cl)N1CCN(c2cc(-c3ccc(F)cc3)[nH]n2)CC1
